Laboratory results: the NIST ThermoML archive (doi:10.1016/j.jct.2013.04.001)
± gives the expanded uncertainty stated by the source.

Assay: mn = molality of the nth substance listed, in mol/kg
Conditions: 101 kPa, Liquid; for mass density: Pycnometric method; for viscosity: Capillary tube (Ostwald / Ubbelohde) method

N=C(N)NCCC[C@H](N)C(=O)O [L-arginine] + O
Conditions	mass density [kg/m3]	viscosity [mPa·s]
293.15 K, m1 = 0.025	999.51 ± 0.31	–
293.15 K, m1 = 0.05	1000.78 ± 0.31	–
293.15 K, m1 = 0.075	1002.04 ± 0.31	–
293.15 K, m1 = 0.1	1003.3 ± 0.31	–
293.15 K, m1 = 0.125	1004.55 ± 0.31	–
293.15 K, m1 = 0.15	1005.79 ± 0.31	–
293.15 K, m1 = 0.175	1007.02 ± 0.32	–
293.15 K, m1 = 0.2	1008.25 ± 0.32	–
298.15 K, m1 = 0.025	998.35 ± 0.33	0.9009 ± 0.036
298.15 K, m1 = 0.05	999.62 ± 0.33	0.9108 ± 0.037
298.15 K, m1 = 0.075	1000.89 ± 0.33	0.9207 ± 0.037
298.15 K, m1 = 0.1	1002.14 ± 0.33	0.93 ± 0.038
298.15 K, m1 = 0.125	1003.4 ± 0.33	0.9393 ± 0.038
298.15 K, m1 = 0.15	1004.64 ± 0.33	0.9486 ± 0.038
298.15 K, m1 = 0.175	1005.88 ± 0.33	0.9579 ± 0.039
298.15 K, m1 = 0.2	1007.11 ± 0.33	0.9668 ± 0.039
303.15 K, m1 = 0.025	996.96 ± 0.34	0.8062 ± 0.033
303.15 K, m1 = 0.05	998.24 ± 0.34	0.8145 ± 0.033
303.15 K, m1 = 0.075	999.51 ± 0.34	0.8225 ± 0.033
303.15 K, m1 = 0.1	1000.78 ± 0.34	0.8304 ± 0.034
303.15 K, m1 = 0.125	1002.03 ± 0.34	0.838 ± 0.034
303.15 K, m1 = 0.15	1003.28 ± 0.34	0.8457 ± 0.034
303.15 K, m1 = 0.175	1004.53 ± 0.34	0.8533 ± 0.034
303.15 K, m1 = 0.2	1005.76 ± 0.34	0.8609 ± 0.035
308.15 K, m1 = 0.025	995.36 ± 0.35	0.7267 ± 0.029
308.15 K, m1 = 0.05	996.65 ± 0.35	0.7336 ± 0.03
308.15 K, m1 = 0.075	997.93 ± 0.36	0.7403 ± 0.03
308.15 K, m1 = 0.1	999.2 ± 0.36	0.7471 ± 0.03
308.15 K, m1 = 0.125	1000.46 ± 0.36	0.7535 ± 0.03
308.15 K, m1 = 0.15	1001.72 ± 0.36	0.7601 ± 0.031
308.15 K, m1 = 0.175	1002.97 ± 0.36	0.7664 ± 0.031
308.15 K, m1 = 0.2	1004.22 ± 0.36	0.7726 ± 0.031
313.15 K, m1 = 0.025	993.55 ± 0.37	0.6593 ± 0.027
313.15 K, m1 = 0.05	994.85 ± 0.37	0.6652 ± 0.027
313.15 K, m1 = 0.075	996.14 ± 0.37	0.6708 ± 0.027
313.15 K, m1 = 0.1	997.42 ± 0.37	0.6764 ± 0.027
313.15 K, m1 = 0.125	998.69 ± 0.37	0.6818 ± 0.028
313.15 K, m1 = 0.15	999.96 ± 0.37	0.6873 ± 0.028
313.15 K, m1 = 0.175	1001.22 ± 0.37	0.6926 ± 0.028
313.15 K, m1 = 0.2	1002.47 ± 0.37	0.6976 ± 0.028
318.15 K, m1 = 0.025	991.55 ± 0.38	0.6031 ± 0.024
318.15 K, m1 = 0.05	992.86 ± 0.38	0.608 ± 0.025
318.15 K, m1 = 0.075	994.16 ± 0.38	0.6128 ± 0.025
318.15 K, m1 = 0.1	995.45 ± 0.38	0.6174 ± 0.025
318.15 K, m1 = 0.125	996.74 ± 0.39	0.622 ± 0.025
318.15 K, m1 = 0.15	998.01 ± 0.39	0.6266 ± 0.025
318.15 K, m1 = 0.175	999.28 ± 0.39	0.6311 ± 0.025
318.15 K, m1 = 0.2	1000.55 ± 0.39	0.6355 ± 0.026
